Test results from US20180200257A1, “METHODS FOR THE TREATMENT OF INFLAMMATORY DISORDERS” (Galapagos NV, priority 2015, published 2018).

Tested on: subjects with moderately to severely active RA who have an inadequate response to methotrexate (MTX)
Assay: Study 1 (add-on to MTX) - ACR responses (ACR20/50/70)
Type: in vivo, human
Excerpt: The terms “ACR20”, “ACR50” and “ACR70” as used herein are scores which indicate how much a patient's rheumatoid arthritis has improved according to criteria set out by the American College of Rheumatology (ACR). The ACR score represents a percentage. An ACR20 score means that a person's RA has improved by 20%, an ACR50 score means it has improved by 50%, and an ACR70 score means it has improved by 70%. Specifically, to qualify for an ACR20 score, a person with RA must have at least 20% fewer tender joints and at least 20% fewer swollen joints. In addition the patient must show a 20% improvement in at least three of the following five areas: the person's overall (global) assessment of his or her own RA, the physician's global assessment of the person's RA, the person's assessment of his or her own pain, the person's assessment of his or her own physical functioning, and the results of an erythrocyte sedimentation rate or C-reactive protein (CRP) blood test (both of which test for inflammation). ACR50 and ACR70 scores use the same criteria but require 50% and 70% improvement, respectively, (Felson et al., 1993). In the data presented herein the CRP blood test is used.
Double-blind, placebo-controlled add on study in subjects with moderately to severely active RA who have an inadequate response to methotrexate (MTX) (oral or parenteral).
595 subjects randomized to one of 6 dose regimens of Compound 1 (dosed as [Compound 1:HCl:3H2O]) (3 dose levels administered either once or twice daily) or placebo on top of each subject's stable dose of MTX.
Compound 1 (dosed as [Compound 1:HCl:3H2O]) is dosed for twelve weeks once daily (q.d.) (50 mg, 100 mg or 200 mg) or twice daily (b.i.d.) (25 mg, 50 mg or 100 mg); or placebo.
At Week 12, the subjects on placebo who have not achieved 20% improvement in swollen joint count (SJC66) and tender joint count (TJC68) are re-randomized automatically to receive Compound 1 (dosed as a [Compound 1:HCl:3H2O]) either at 100 mg q.d. or 50 mg b.i.d. doses in a blinded fashion; subjects on 50 mg q.d. who have not achieved 20% improvement in SJC66 and TJC68 will be assigned to 100 mg q.d. and subjects on 25 mg b.i.d. that have not achieved a 20% improvement in SJC66 and TJC68 will be assigned to 50 mg b.i.d. Subjects who switch treatment at week 12 are handled as if they discontinued at week 12 for the purpose of statistical analysis, whereas subjects in the other groups will maintain their randomized treatment until Week 24.
The American College of Rheumatology (ACR) composite score, which evaluates clinical improvement relative to an initial assessment, is a commonly accepted efficacy end point for clinical trials in patients with rheumatoid arthritis. The ACR score correspond to a percentage improvement in pre-set parameters, and therefore measures the evolution of the disease in a patient. For example, ACR20 denotes at least 20% improvement in tender and swollen joint counts and in three of the following end points: global assessment by the patient, global assessment by the doctor, C reactive protein (CRP), patient's pain Visual Analogue Scale and Health Assessment Questionnaire Score. The number of swollen joints, ESR and CRP correlate with radiographic progression of joint damage, whereas tender joint counts, as well as global assessments by doctors and patients, and patients' reports of pain, are sensitive to change in clinical outcomes. Physical function, as assessed by the Health Assessment Questionnaire Score, is a potent predictor of the risk of disability in rheumatoid arthritis (Felson and American College of Rheumatology Committee to Reevaluate Improvement Criteria, 2007; Felson et al., 1993).
In particular, the list of parameters used to assess ACR score can be found in the Table XCVI below and the results of the ACR responses at week 12 via either NRI or LOCF are shown in the tables below. The Hommel-corrected p-value for the pairwise comparisons of each group with placebo is shown. […]

[1] = 50 mg q.d., week 2, 12 weeks results
[2] = 50 mg q.d., week 2, 24 weeks results
[3] = 50 mg q.d., week 4, 12 weeks results
[4] = 50 mg q.d., week 4, 24 weeks results
[5] = 50 mg q.d., week 12, 12 weeks results
[6] = 50 mg q.d., week 12, 24 weeks results
[7] = 50 mg q.d., week 16, 24 weeks results
[8] = 50 mg q.d., week 20, 24 weeks results
[9] = 50 mg q.d., week 24, 24 weeks results
[10] = 50 mg q.d., at week 1, 12 weeks results
[11] = 50 mg q.d., at week 1, 24 weeks results
[12] = 50 mg q.d., week 8, 12 weeks results
[13] = 50 mg q.d., week 8, 24 weeks results
[14] = 100 mg q.d., week 2, 12 weeks results
[15] = 100 mg q.d., week 2, 24 weeks results
[16] = 100 mg q.d., week 4, 12 weeks results
[17] = 100 mg q.d., week 4, 24 weeks results
[18] = 100 mg q.d., week 8, 24 weeks results
[19] = 100 mg q.d., week 12, 12 weeks results

## O=C(Nc1nc2cccc(-c3ccc(CN4CCS(=O)(=O)CC4)cc3)n2n1)C1CC1 [Compound 1, cyclopropanecarboxylic acid {5-[4-(1,1-dioxo-thiomorpholin-4-ylmethyl)-phenyl]-[1,2,4]triazolo[1,5-a]pyridin-2-yl}-amide]
[1]
  ACR20 (LOCF): 39.0%
  ACR20 (NRI): 37.8%
  ACR50 (LOCF): 7.3%
  ACR50 (NRI): 7.3%
  ACR70 (LOCF): 2.4%
  ACR70 (NRI): 2.4%
[2]
  ACR20 (LOCF): 39.0%
  ACR20 (NRI): 37.8%
  ACR50 (LOCF): 7.3%
  ACR50 (NRI): 7.3%
  ACR70 (LOCF): 2.4%
  ACR70 (NRI): 2.4%
[3]
  ACR20 (LOCF): 45.1%
  ACR20 (NRI): 42.7%
  ACR50 (LOCF): 12.2%
  ACR50 (NRI): 12.2%
  ACR70 (LOCF): 7.3%
  ACR70 (NRI): 7.3%
[4]
  ACR20 (LOCF): 45.1%
  ACR20 (NRI): 42.7%
  ACR50 (LOCF): 12.2%
  ACR50 (NRI): 12.2%
  ACR70 (LOCF): 7.3%
  ACR70 (NRI): 7.3%
[5]
  ACR20 (LOCF): 59.8%
  ACR20 (NRI): 56.1%
  ACR50 (LOCF): 31.7%
  ACR50 (NRI): 31.7%
  ACR70 (LOCF): 15.9%
  ACR70 (NRI): 15.9%
[6]
  ACR20 (LOCF): 59.8%
  ACR20 (NRI): 56.1%
  ACR50 (LOCF): 31.7%
  ACR50 (NRI): 31.7%
  ACR70 (LOCF): 15.9%
  ACR70 (NRI): 15.9%
[7]
  ACR20 (LOCF): 59.8%
  ACR20 (NRI): 56.1%
  ACR50 (LOCF): 37.8%
  ACR50 (NRI): 37.8%
  ACR70 (LOCF): 18.3%
  ACR70 (NRI): 18.3%
[8]
  ACR20 (LOCF): 61.0%
  ACR20 (NRI): 57.3%
  ACR50 (LOCF): 39.0%
  ACR70 (LOCF): 23.2%
[9]
  ACR20 (LOCF): 61.0%
  ACR20 (NRI): 54.9%
  ACR50 (LOCF): 36.6%
  ACR70 (LOCF): 22.0%
[10]
  ACR20 (LOCF): 22.0%
  ACR20 (NRI): 22.0%
  ACR50 (LOCF): 2.4%
  ACR50 (NRI): 2.4%
  ACR70 (LOCF): 0.0%
  ACR70 (NRI): 0.0%
[11]
  ACR20 (LOCF): 22.0%
  ACR20 (NRI): 22.0%
  ACR50 (LOCF): 2.4%
  ACR50 (NRI): 2.4%
  ACR70 (LOCF): 0.0%
  ACR70 (NRI): 0.0%
[12]
  ACR20 (LOCF): 57.3%
  ACR20 (NRI): 54.9%
  ACR50 (LOCF): 25.6%
  ACR50 (NRI): 26.8%
  ACR70 (LOCF): 11.0%
  ACR70 (NRI): 11.0%
[13]
  ACR20 (LOCF): 57.3%
  ACR20 (NRI): 54.9%
  ACR50 (LOCF): 26.8%
  ACR50 (NRI): 26.8%
  ACR70 (LOCF): 11.0%
  ACR70 (NRI): 11.0%
[14]
  ACR20 (LOCF): 45.9%
  ACR20 (NRI): 47.1%
  ACR50 (LOCF): 20.0%
  ACR50 (NRI): 20.0%
  ACR70 (LOCF): 7.1%
  ACR70 (NRI): 7.1%
[15]
  ACR20 (LOCF): 48.2%
  ACR20 (NRI): 47.1%
  ACR50 (LOCF): 20.0%
  ACR50 (NRI): 20.0%
  ACR70 (LOCF): 7.1%
  ACR70 (NRI): 7.1%
[16]
  ACR20 (LOCF): 48.2%
  ACR20 (NRI): 50.6%
  ACR50 (LOCF): 32.9%
  ACR50 (NRI): 32.9%
  ACR70 (LOCF): 15.3%
  ACR70 (NRI): 15.3%
[17]
  ACR20 (LOCF): 51.8%
  ACR20 (NRI): 51.8%
  ACR50 (LOCF): 32.9%
  ACR50 (NRI): 32.9%
  ACR70 (LOCF): 15.3%
  ACR70 (NRI): 15.3%
[18]
  ACR20 (LOCF): 64.7%
  ACR20 (NRI): 64.7%
  ACR50 (LOCF): 35.3%
  ACR50 (NRI): 35.3%
  ACR70 (LOCF): 23.5%
  ACR70 (NRI): 23.5%
[19]
  ACR20 (LOCF): 63.5%
  ACR20 (NRI): 62.4%
  ACR50 (LOCF): 38.8%
  ACR50 (NRI): 38.8%
